# Measured values published in BindingDB's records for doi:10.1021/jm990039i (Southern Research Institute, 1999).
# Experiment: The opioid antagonist potency against PL-107 mu-opioid receptor from guinea pig ileum(GPI).Ke (nM) = [antagonist]/(IC50 ratio-1)
structure (smiles),measurement,value
Oc1ccc2c3c1O[C@H]1c4ncc(-c5ccccc5)cc4C[C@@]4(O)[C@@H](C2)N(CC2CC2)CC[C@]314,Ki,42 nM
